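Five compound concentrations were applied to cells in 96-well plates for 48 hours; endpoints were derived by simple linear interpolation of the resulting dose-response curve. GI50 is the concentration that inhibits growth by half. TGI marks complete inhibition of growth.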
What was measured:
Test in all cases: NCI-60 cell line screen, 48 h
BT-549 breast = tested on: BT-549 breast
UO-31 renal = tested on: UO-31 renal
NCI-H23 lung = tested on: NCI-H23 lung
MDA-MB-435 = tested on: MDA-MB-435
A498 renal = tested on: A498 renal
LOX IMVI melanoma = tested on: LOX IMVI melanoma
NCI/ADR-RES ovarian = tested on: NCI/ADR-RES ovarian
RPMI-8226 leukemia = tested on: RPMI-8226 leukemia
MCF7 breast = tested on: MCF7 breast
UACC-257 melanoma = tested on: UACC-257 melanoma

Row | Compound | GI50 (BT-549 breast) | TGI (BT-549 breast) | GI50 (UO-31 renal) | TGI (UO-31 renal) | GI50 (NCI-H23 lung) | TGI (NCI-H23 lung) | GI50 (MDA-MB-435) | TGI (MDA-MB-435) | GI50 (A498 renal) | TGI (A498 renal) | GI50 (LOX IMVI melanoma) | TGI (LOX IMVI melanoma) | GI50 (NCI/ADR-RES ovarian) | TGI (NCI/ADR-RES ovarian) | GI50 (RPMI-8226 leukemia) | TGI (RPMI-8226 leukemia) | GI50 (MCF7 breast) | TGI (MCF7 breast) | GI50 (UACC-257 melanoma) | TGI (UACC-257 melanoma)
1 | CC(=O)OC[C@]12CC[C@@H]([C@@H](C)C(N)=O)[C@@H]1[C@H]1CC[C@@H]3[C@@]4(C)CC[C@H](OC(C)=O)C(C)(C)[C@@H]4CC[C@@]3(C)[C@]1(C)CC2 | 8.17 µM | 22.6 µM | 7.57 µM | 21.1 µM | 9.42 µM | 33.6 µM | 5.23 µM | 22.3 µM | 12.8 µM | 25.6 µM | 10.2 µM | 24.4 µM | 7.74 µM | 27.2 µM | 2.63 µM | 12.4 µM | 3.27 µM | 12.4 µM | 4.83 µM | 22.7 µM
2 | COc1ccc(/C=C/c2cc(N3CCOCC3)c3cc(F)c(F)cc3n2)cc1OC | 0.777 µM | 5.46 µM | 0.347 µM | 10.3 µM | 1.12 µM | 6.11 µM | 1.54 µM | 12.8 µM | 1.23 µM | 4.63 µM | 0.516 µM | 2.27 µM | 0.432 µM | 3.03 µM | 1.5 µM | 9 µM | 0.389 µM | 9.48 µM | 2.39 µM | 9.89 µM
3 | C#COc1cccc(Nc2ncnc3ncc(NC(=O)CCl)cc23)c1 | > 62.5 µM | > 62.5 µM | > 14 µM | > 33.2 µM | > 62.5 µM | > 62.5 µM | > 49.8 µM | > 62.5 µM | > 62.5 µM | > 62.5 µM | – | > 28 µM | > 24.7 µM | > 62.5 µM | > 19.8 µM | > 62.5 µM | > 16.6 µM | > 62.5 µM | > 62.5 µM | > 62.5 µM
4 | Clc1ccc(-c2nn3ncccc3c2-c2ccnc(Nc3ccccc3)n2)cc1 | 10.7 µM | > 25 µM | 1.35 µM | > 16.1 µM | 10.5 µM | > 25 µM | 10.1 µM | > 25 µM | 4.42 µM | > 23.3 µM | 9.23 µM | > 25 µM | 8.01 µM | > 25 µM | 11.7 µM | > 25 µM | 7.17 µM | > 25 µM | > 15.1 µM | > 25 µM
5 | CCCN(CCC)CCCNC(=O)c1cc2c(-c3ccc(OC)c(OC)c3)nn(C)c2s1 | 20.9 µM | 87 µM | 13.6 µM | 47 µM | 58 µM | > 100 µM | 14.1 µM | 31.8 µM | 3.06 µM | > 100 µM | 15.1 µM | 31 µM | 33.4 µM | > 100 µM | 14.6 µM | 42.2 µM | 18.2 µM | 42.1 µM | 17.3 µM | 34.4 µM
6 | O=C(CCCc1ccccn1)c1ccccc1 | – | > 100 µM | – | > 100 µM | – | > 100 µM | – | > 100 µM | – | > 100 µM | – | > 100 µM | – | > 100 µM | – | > 100 µM | – | > 100 µM | – | > 100 µM
7 | C#CCNC(=O)CC[C@]1(C)[C@H]2CC[C@@H]3[C@@H]([C@@](C)(O)CCC=C(C)C)CC[C@@]3(C)[C@]2(C)CC[C@H]1C(=C)C | 29 µM | > 100 µM | 14.1 µM | 29.1 µM | 27.7 µM | > 100 µM | 38.1 µM | > 100 µM | > 100 µM | > 100 µM | 9.73 µM | 27.4 µM | 40.5 µM | > 100 µM | 20.1 µM | 62.9 µM | 24.7 µM | > 100 µM | 68 µM | > 100 µM
8 | O=C(O)CCCCn1cnc2c(=S)nc[nH]c21 | – | > 100 µM | – | > 100 µM | – | > 100 µM | – | > 100 µM | – | > 100 µM | – | > 100 µM | – | > 100 µM | – | > 100 µM | – | > 100 µM | – | > 100 µM
9 | CCOC(=O)c1c(C)n2c(=O)cc(C)c3c(OC(C)=O)c(OC(C)=O)cc1c32 | 6.21 µM | 46.1 µM | 4.6 µM | > 35.8 µM | 4.64 µM | > 34.7 µM | 5.76 µM | > 53 µM | 14 µM | 52.1 µM | 4.52 µM | 22.9 µM | 2.69 µM | > 27 µM | 2.75 µM | 8.33 µM | 3.27 µM | 14 µM | 7.64 µM | 25.3 µM
10 | COC(=O)[C@H](CC(C)C)NC(=O)NC(=O)NC(=O)CI | 5.32 µM | 17.7 µM | 1.64 µM | 3.13 µM | 14.9 µM | 32.2 µM | 6.1 µM | 19.2 µM | 17.7 µM | 32.6 µM | 1.64 µM | 3.24 µM | 25.5 µM | 74.1 µM | 2.92 µM | 7.75 µM | 1.8 µM | 4.33 µM | 7.76 µM | 20.3 µM
11 | CCOC(=O)C(=O)N=Nc1nc2c(O)c3ccccc3c(O)c2s1 | – | 22.9 µM | – | 6.12 µM | – | 4.91 µM | – | 3.15 µM | – | 38.2 µM | – | 3.88 µM | – | 4.89 µM | – | > 19.9 µM | – | 30.4 µM | – | 3.75 µM
12 | O=C1/C(=C\c2coc3ccccc3c2=O)c2ccccc2N1c1c(Cl)cccc1Cl | 2.83 µM | 35.3 µM | 1.8 µM | 11.9 µM | 4.45 µM | > 100 µM | 2.7 µM | 9.69 µM | 4.35 µM | > 100 µM | 1.52 µM | 8.91 µM | 3.42 µM | > 100 µM | 1.25 µM | 3.95 µM | 3.21 µM | > 100 µM | 4.59 µM | > 100 µM
13 | CC[C@@H](C(=O)[C@@H](C)[C@@H](O)[C@H](C)[C@@H]1O[C@@H]([C@@H](CC)C(=O)O)CC[C@@H]1C)[C@H]1OC2(C=C[C@@H](O)[C@]3(CC[C@@](C)([C@H]4CC[C@](O)(CC)[C@H](C)O4)O3)O2)[C@H](C)C[C@@H]1C (some centres undefined) | 0.233 µM | 2.97 µM | 1.27 µM | > 41.4 µM | 0.207 µM | 15.4 µM | 0.568 µM | 1.51 µM | 0.0276 µM | 0.458 µM | 0.505 µM | > 19 µM | 0.434 µM | > 50 µM | 0.117 µM | 4.48 µM | 0.154 µM | > 39.2 µM | 0.241 µM | 5.49 µM

Source: PubChem BioAssay (NCI)
